Test results published in publication PMC10955571 (ACS Omega, 2024).
Where a SMILES comes first, the peptide text is derived from it. The star is where a group is joined. Isobutyryl = CC(C)C(=O)*; Cbz = O=C(OCc1ccccc1)*; OAll = C=CCO*

Legend:
BACE-1 = BACE-1 (Homo sapiens, UniProt P56817); experiment: BACE-1 FRET inhibition assay; assay type: biochemical
Aβ1–42 = Aβ1–42 (Homo sapiens, UniProt P05067); experiment: Inhibition of Aβ1–42 self-induced aggregation, Thioflavin-T fluorometric assay; assay type: biochemical; details: read-out: % inhibition of Aβ1–42 aggregation at 10 μM, 10 μM compound
Human AChE = Human AChE (Homo sapiens, UniProt P22303); experiment: AChE inhibition, Ellman assay; assay type: biochemical
PAMPA-BBB permeability = details: for Papp at 5 h, 200 μM: PAMPA, pH 7.4
[1] = tested on: scopolamine-induced memory impairment in mice; experiment: Morris water maze test, scopolamine-induced memory impairment; assay type: in vivo, Swiss albino mice; details: MWM, one animal from each group; for time taken by the animals to reach the platform, after the training (5th day): basal reading before any treatment; for time taken by the animals to reach the platform, after treatment with the test compound/donepezil (11th day): before scopolamine; for time taken by the animals to reach the platform, after treatment with the test compound/donepezil (11th day) / time taken by the animals to reach the platform, after treatment with scopolamine (14th day): compounds 10 mg/kg, donepezil 3 mg/kg; for time taken by the animals to reach the platform, after treatment with scopolamine (14th day): scopolamine 2 mg/kg i.p. days 12-14
Plasma stability assay = assay type: in vitro ADME

Sequence of BACE-1 (P56817 46-501): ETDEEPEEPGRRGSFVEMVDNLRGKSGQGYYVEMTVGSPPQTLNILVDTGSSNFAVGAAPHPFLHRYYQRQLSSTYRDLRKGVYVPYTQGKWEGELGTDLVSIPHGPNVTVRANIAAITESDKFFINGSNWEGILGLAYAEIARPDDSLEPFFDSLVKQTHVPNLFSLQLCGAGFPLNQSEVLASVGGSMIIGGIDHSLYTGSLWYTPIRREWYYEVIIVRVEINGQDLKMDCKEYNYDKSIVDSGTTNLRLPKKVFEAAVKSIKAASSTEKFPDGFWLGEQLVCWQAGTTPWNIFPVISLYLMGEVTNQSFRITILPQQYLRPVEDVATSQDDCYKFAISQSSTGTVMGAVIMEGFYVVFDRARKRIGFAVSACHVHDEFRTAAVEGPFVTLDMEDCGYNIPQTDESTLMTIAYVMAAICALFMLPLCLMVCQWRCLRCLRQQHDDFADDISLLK
Sequence of Human AChE (P22303 32-614): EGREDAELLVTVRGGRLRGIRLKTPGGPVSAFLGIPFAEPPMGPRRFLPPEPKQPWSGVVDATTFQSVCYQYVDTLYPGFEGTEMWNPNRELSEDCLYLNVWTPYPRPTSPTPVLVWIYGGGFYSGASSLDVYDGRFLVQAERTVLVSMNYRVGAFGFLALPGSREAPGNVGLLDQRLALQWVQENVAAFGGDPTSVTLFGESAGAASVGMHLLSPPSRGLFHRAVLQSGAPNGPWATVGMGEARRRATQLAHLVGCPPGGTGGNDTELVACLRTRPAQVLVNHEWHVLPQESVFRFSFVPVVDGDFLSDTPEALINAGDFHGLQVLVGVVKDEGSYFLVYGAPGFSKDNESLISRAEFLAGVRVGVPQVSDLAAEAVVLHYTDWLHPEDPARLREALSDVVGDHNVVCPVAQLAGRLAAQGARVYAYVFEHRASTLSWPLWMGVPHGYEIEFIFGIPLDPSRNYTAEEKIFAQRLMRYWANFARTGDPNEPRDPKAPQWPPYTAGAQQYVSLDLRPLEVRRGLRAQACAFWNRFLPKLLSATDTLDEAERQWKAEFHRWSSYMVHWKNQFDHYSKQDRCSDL
Sequence of Aβ1–42 (P05067 672-713): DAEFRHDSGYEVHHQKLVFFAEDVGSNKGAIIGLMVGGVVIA

| SMILES | IC50 (BACE-1) [µM] | inhibition at 10 µM (Aβ1–42) [%] | IC50 (Human AChE) [µM] | Papp at 5 h, 200 μM (PAMPA-BBB permeability) [×10⁻⁶ cm/s] | time taken by the animals to reach the platform, after the training (5th day) [1] [s] | time taken by the animals to reach the platform, after treatment with the test compound/donepezil (11th day) [1] [s] | time taken by the animals to reach the platform, after treatment with scopolamine (14th day) [1] [s] | further results |
| --- | --- | --- | --- | --- | --- | --- | --- | --- |
| COC(=O)[C@H](C)NC(=O)[C@@H]1CCCN1C(=O)CNC(=O)C(C)C [Compound 13, Isobut-Gly-Pro-Ala-OMe] (Isobutyryl-Gly-Pro-Ala-OMe) | 0.2 ± 0.03 | 36.3 ± 4.3 | 7 ± 1 |  |  |  |  |  |
| CC(C)C(=O)NCC(=O)N1CCC[C@H]1C(=O)N[C@@H](C)C(=O)O [Compound 14, Isobut-Gly-Pro-Ala-OH] (Isobutyryl-Gly-Pro-Ala-OH) | 0.6 ± 0.05 |  | 8 ± 1.2 |  |  |  |  |  |
| C=CCOC(=O)[C@H](C)NC(=O)[C@@H]1CCCN1C(=O)CNC(=O)C(C)C [Compound 15, Isobut-Gly-Pro-Ala-O-allyl] (Isobutyryl-Gly-Pro-Ala-OAll) | 0.05 ± 0.001 | > 50 | 0.05 ± 0.01 | 1.8 | 11 | 11 | 93 |  |
| CC(C)=CCOC(=O)[C@H](C)NC(=O)[C@@H]1CCCN1C(=O)CNC(=O)C(C)C [Compound 16, Isobut-Gly-Pro-Ala-O-dimethylallyl] | 0.2 ± 0.01 |  | 1 ± 0.1 |  |  |  |  |  |
| CC(C)C(=O)NCC(=O)N1CCC[C@H]1C(=O)N[C@@H](C)C(=O)OC/C=C/c1ccccc1 [Compound 17, Isobut-Gly-Pro-Ala-O-Cinnamyl] | 0.1 ± 0.01 |  | 0.9 ± 0.1 | 3.64 |  |  |  |  |
| CC(C)=CCC/C(C)=C/COC(=O)[C@H](C)NC(=O)[C@@H]1CCCN1C(=O)CNC(=O)C(C)C [Compound 18, Isobut-Gly-Pro-Ala-O-Geranyl] | 20 ± 2 | 12.5 ± 2.1 | 7 ± 1.3 | 3.17 | 5 | 5 | 71 |  |
| COC(=O)[C@H](C)NC(=O)[C@@H]1CCCN1C(=O)CNC(=O)OCc1ccccc1 [Compound 21, Cbz-Gly-Pro-Ala-OMe] (Cbz-Gly-Pro-Ala-OMe) | 30 ± 4.1 |  | 1000 ± 9.5 |  |  |  |  | IC50 AChE (Human AChE; Ellman assay, mean ± SEM): millimolar range |
| C[C@H](NC(=O)[C@@H]1CCCN1C(=O)CNC(=O)OCc1ccccc1)C(=O)O [Compound 22, Cbz-Gly-Pro-Ala-OH] (Cbz-Gly-Pro-Ala-OH) | 0.3 ± 0.02 |  | 0.1 ± 0.01 |  |  |  |  |  |
| C=CCOC(=O)[C@H](C)NC(=O)[C@@H]1CCCN1C(=O)CNC(=O)OCc1ccccc1 [Compound 23, Cbz-Gly-Pro-Ala-O-Allyl] (Cbz-Gly-Pro-Ala-OAll) | 1 ± 0.2 |  | 0.8 ± 0.1 |  |  |  |  |  |
| CC(C)=CCOC(=O)[C@H](C)NC(=O)[C@@H]1CCCN1C(=O)CNC(=O)OCc1ccccc1 [Compound 24, Cbz-Gly-Pro-Ala-O-dimethylallyl] | 20 ± 2.3 |  | 0.6 ± 0.03 |  |  |  |  |  |
| C[C@H](NC(=O)[C@@H]1CCCN1C(=O)CNC(=O)OCc1ccccc1)C(=O)OC/C=C/c1ccccc1 [Compound 25, Cbz-Gly-Pro-Ala-O-cinnamyl] | 0.02 ± 0.001 | > 50 | 1 ± 0.2 | 17.8 | 20 | 15 | 15 | change in the concentration in plasma (Plasma stability assay; 50 μM in plasma pH 7–8, 37 °C, 12 h incubation): ~10%; effect of plasma on the half-life time (Plasma stability assay; 50 μM in plasma, 37 °C): no remarkable effect on the half-life time |
| CC(C)=CCC/C(C)=C/COC(=O)[C@H](C)NC(=O)[C@@H]1CCCN1C(=O)CNC(=O)OCc1ccccc1 [Compound 26, Cbz-Gly-Pro-Ala-O-Geranyl] | 0.1 ± 0.01 | 31.8 ± 3.2 | 0.7 ± 0.1 |  | 7 | 39 | 45 |  |
| COC(=O)[C@H](C)NC(=O)[C@@H]1CCCN1C(=O)CN [Compound 30, NH2-Gly-Pro-Ala-OMe] (H-Gly-Pro-Ala-OMe) | 0.02 ± 0.001 | 33.7 ± 4.2 | 2 ± 1.1 | 8.98 | 20 | 12 | 65 |  |
| C(=C\n1nncc1COc1ccc2ccccc2c1-c1c(OCc2cnnn2/C=C/Cc2ccccc2)ccc2ccccc12)/Cc1ccccc1 [Compound 33, 2,2′-Bis((1-((E)-3-phenylprop-1-en-1-yl)-1H-1,2,3-triazol-5-yl)methoxy)-1,1′-binaphthalene] | 1 ± 0.1 | 43.2 ± 4.7 | 7 ± 1.4 | 1.59 |  |  |  |  |
| Cn1c(=O)c2c(ncn2C)n(C)c1=O [caffeine, reference compound] |  |  |  | 10.9 |  |  |  | Pe (PAMPA-BBB) (PAMPA-BBB permeability; 200 μM in PBS pH 7.4, 5 h, room temperature): 10.9 × 10^–6 cm s^–1 |
| COc1cc2c(cc1OC)C(=O)C(CC1CCN(Cc3ccccc3)CC1)C2 (stereo not shown) [donepezil, reference compound] |  | 10.9 ± 1.4 |  |  | 15 | 17 | 10 |  |
| CCn1cc(C(=O)O)c(=O)c2cc(F)c(N3CCNCC3)cc21 [norfloxacin, reference compound] |  |  |  | 1.73 |  |  |  |  |
| CN1[C@@H]2C[C@@H](OC(=O)[C@H](CO)c3ccccc3)C[C@H]1[C@@H]1O[C@@H]12 [scopolamine, reference compound] |  |  |  |  |  |  | 77 |  |
